As usually defined, the IC50 is the concentration at which inhibition is half-maximal. A higher IC50 goes with lower potency.

Assay [1] has as its target Sodium-dependent serotonin transporter (Rattus norvegicus, UniProt P31652). Kind of assay: Inhibitory activity against radioligand [3H]paroxetine binding at the serotonin transporter.
For assay [2], the target named is Sodium-dependent dopamine transporter (Rattus norvegicus, UniProt P23977). Briefly: Inhibitory activity against radioligand [3H]WIN-35428 binding at the dopamine transporter.
Sodium-dependent dopamine transporter, sequence (P23977 whole entry): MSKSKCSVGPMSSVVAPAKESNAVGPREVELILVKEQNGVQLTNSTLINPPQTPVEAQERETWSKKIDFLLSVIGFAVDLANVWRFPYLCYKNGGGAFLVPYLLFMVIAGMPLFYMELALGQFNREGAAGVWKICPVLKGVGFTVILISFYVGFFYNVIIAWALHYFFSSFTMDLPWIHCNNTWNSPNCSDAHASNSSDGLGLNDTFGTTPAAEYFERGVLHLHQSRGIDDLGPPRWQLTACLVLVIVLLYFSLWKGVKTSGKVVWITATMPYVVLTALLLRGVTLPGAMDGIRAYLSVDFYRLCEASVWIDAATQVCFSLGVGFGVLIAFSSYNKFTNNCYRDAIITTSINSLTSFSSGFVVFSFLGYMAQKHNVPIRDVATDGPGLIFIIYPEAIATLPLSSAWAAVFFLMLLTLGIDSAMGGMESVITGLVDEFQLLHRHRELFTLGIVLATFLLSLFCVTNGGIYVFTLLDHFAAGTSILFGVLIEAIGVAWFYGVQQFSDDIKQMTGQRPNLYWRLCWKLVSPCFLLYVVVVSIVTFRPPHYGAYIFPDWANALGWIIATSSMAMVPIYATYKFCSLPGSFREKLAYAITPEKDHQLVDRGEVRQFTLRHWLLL
The target of assay [3] is Norepinephrine transporter (Rattus norvegicus, UniProt Q9WTR4). Kind of assay: Inhibitory activity against radioligand [3H]nisoxetine binding at the norepinephrine transporter.
Norepinephrine transporter, sequence (Q9WTR4 whole entry): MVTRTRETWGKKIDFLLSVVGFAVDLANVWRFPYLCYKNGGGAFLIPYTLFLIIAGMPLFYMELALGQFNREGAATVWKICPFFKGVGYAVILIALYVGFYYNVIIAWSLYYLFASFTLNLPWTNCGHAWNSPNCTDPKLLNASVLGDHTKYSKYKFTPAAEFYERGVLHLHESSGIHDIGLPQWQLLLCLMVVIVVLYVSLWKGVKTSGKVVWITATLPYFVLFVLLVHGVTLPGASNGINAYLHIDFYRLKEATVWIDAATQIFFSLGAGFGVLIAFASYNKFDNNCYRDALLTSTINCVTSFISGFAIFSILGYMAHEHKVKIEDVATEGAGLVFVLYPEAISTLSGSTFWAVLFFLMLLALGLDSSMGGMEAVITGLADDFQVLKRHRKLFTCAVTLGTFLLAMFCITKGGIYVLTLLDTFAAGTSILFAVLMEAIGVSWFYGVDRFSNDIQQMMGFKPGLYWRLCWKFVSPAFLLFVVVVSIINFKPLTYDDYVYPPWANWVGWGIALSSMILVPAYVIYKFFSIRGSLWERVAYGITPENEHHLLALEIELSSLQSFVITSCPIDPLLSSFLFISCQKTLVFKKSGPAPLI

Sodium-dependent serotonin transporter, sequence (P31652 whole entry): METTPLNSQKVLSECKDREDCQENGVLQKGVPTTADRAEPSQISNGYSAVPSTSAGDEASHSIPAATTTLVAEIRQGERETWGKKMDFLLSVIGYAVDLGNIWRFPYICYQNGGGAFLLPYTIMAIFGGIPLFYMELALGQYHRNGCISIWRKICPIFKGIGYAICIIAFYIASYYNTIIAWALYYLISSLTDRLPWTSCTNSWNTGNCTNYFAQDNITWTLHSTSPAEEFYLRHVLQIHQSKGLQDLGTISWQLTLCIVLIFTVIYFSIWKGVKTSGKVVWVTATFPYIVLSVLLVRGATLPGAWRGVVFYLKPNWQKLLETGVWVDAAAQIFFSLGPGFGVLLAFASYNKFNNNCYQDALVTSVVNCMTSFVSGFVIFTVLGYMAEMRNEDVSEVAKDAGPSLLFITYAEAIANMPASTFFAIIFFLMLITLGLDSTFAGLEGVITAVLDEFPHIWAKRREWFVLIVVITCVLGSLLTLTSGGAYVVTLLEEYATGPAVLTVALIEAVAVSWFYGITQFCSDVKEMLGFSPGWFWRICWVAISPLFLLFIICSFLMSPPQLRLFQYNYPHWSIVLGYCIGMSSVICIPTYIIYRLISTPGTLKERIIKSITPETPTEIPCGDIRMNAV

Turning to `CN1C2CC[C@@H]1C[C@@H](c1ccccc1)[C@@H]2c1ccccc1` (single isomer, unassigned; form 1), the 50% inhibitory concentration (IC50) in assay [1] is 21100 nM; in assay [2] it was 12.6 nM; in assay [3] it was 917 nM.

`CN1C2CC[C@@H]1C[C@@H](c1ccccc1)[C@@H]2c1ccccc1` (single isomer, unassigned; form 2): the IC50 is 41300 nM in assay [1], 690 nM in assay [2] and 1040 nM in assay [3].

With `CN1[C@@H]2CC[C@H]1C(c1ccccc1)C(c1ccccc1)C2` (mixture of isomers; form 1), the values for the IC50 in assay [1], in assay [2] and in assay [3] were 34700 nM, 28 nM and 2670 nM, respectively.

On to `Cc1ccc(C2C[C@H]3CCC(C2c2ccccc2)N3C)cc1` (stereo in doubt; (R)-4b), for which the IC50 in assay [1] turned out to be 15800 nM; in assay [2], 429 nM; in assay [3] it was 4850 nM.

For `CN1[C@@H]2CC[C@H]1C(c1ccccc1)C(c1ccccc1)C2` (mixture of isomers; form 2), the results for the IC50 in assay [1] and in assay [3] were 186000 nM and 2770 nM, respectively.

As for `Cc1ccc(C2C[C@H]3CCC(C2c2ccccc2)N3C)cc1` (stereo in doubt; (R)-3b), the IC50 in assay [1] amounted to 11000 nM; in assay [2], 1.96 nM; in assay [3], 479 nM.

These data come from ChEMBL document CHEMBL1130729, “Synthesis and transporter binding properties of (R)-2 beta, 3 beta- and (R)-2 alpha, 3 alpha-diaryltropanes” (Bioorg Med Chem Lett, 1998).
